# “And” between values parts separate entries of the source, which are not always exact repeats. Equal entries are not always repeated.
# Assay: CIA study: animal body weight
# Conditions: for Animal body weight percent change (%): individual animals; for Average animal body weight / Average animal body weight percent change: CIA
structure (smiles),measurement,setting,value
"Cn1cc(-c2ccccc2)c(-c2cn(C)c(=O)c3[nH]c(-c4cnn(C(F)(F)F)c4)cc23)cc1=O [Compound A, 6-methyl-4-(1-methyl-2-oxo-5-phenyl-1,2-dihydropyridin-4-yl)-2-(1-(trifluoromethyl)-1H-pyrazol-4-yl)-1,6-dihydro-7H-pyrrolo[2,3-c]pyridin-7-one]",Animal body weight percent change (%),"Day 9, Group 5 (CIA + Compound A 1 mg/kg), 1 mg/kg",9.09% and −4.88% and 8.02% and 6.58% and 2.37% and 1.80% and 3.68%
same,Animal body weight percent change (%),"Day 9, Group 6 (CIA + Compound A 3 mg/kg), 3 mg/kg",−3.57% and 0.00% (2×) and 1.71% and 1.20% and 4.19% and 8.28% and 2.56%
same,Average animal body weight,"Day 10, 1 mg/kg",170
same,Average animal body weight percent change,"Day 10, 1 mg/kg",4.20%
same,Average animal body weight,"Day 10, 3 mg/kg",168
same,Average animal body weight percent change,"Day 10, 3 mg/kg",1.65%
same,Average animal body weight,"Day 10, 10 mg/kg",164
same,Average animal body weight percent change,"Day 10, 10 mg/kg",0.89%
same,Animal body weight percent change (%),"Day 10, Group 5 (CIA + Compound A 1 mg/kg), 1 mg/kg",7.88% and −5.49% and 9.88% and 9.21% and 0.59% and 5.39% and 1.84%
same,Animal body weight percent change (%),"Day 10, Group 6 (CIA + Compound A 3 mg/kg), 3 mg/kg",−3.57% and 0.58% and 1.14% and 1.80% and 0.60% and 2.45% and 6.37%
same,Average animal body weight,"Day 11, 1 mg/kg",170
same,Average animal body weight percent change,"Day 11, 1 mg/kg",4.25%
same,Average animal body weight,"Day 11, 3 mg/kg",169
same,Average animal body weight percent change,"Day 11, 3 mg/kg",1.92%
same,Average animal body weight,"Day 11, 10 mg/kg",165
same,Average animal body weight percent change,"Day 11, 10 mg/kg",1.44%
same,Animal body weight percent change (%),"Day 11, Group 5 (CIA + Compound A 1 mg/kg), 1 mg/kg",9.09% and −4.27% and 9.88% and 6.58% and 0.59% and 4.79% and 2.45%
same,Animal body weight percent change (%),"Day 11, Group 6 (CIA + Compound A 3 mg/kg), 3 mg/kg",−4.76% and 0.58% and 1.71% and 2.99% and −4.19% and 3.68% and 9.55%
same,Average animal body weight,"Day 12, 1 mg/kg",171
same,Average animal body weight percent change,"Day 12, 1 mg/kg",4.85%
same,Average animal body weight,"Day 12, 3 mg/kg",167
same,Average animal body weight percent change,"Day 12, 3 mg/kg",0.97%
same,Average animal body weight,"Day 12, 10 mg/kg",164
same,Average animal body weight percent change,"Day 12, 10 mg/kg",1.36%
same,Animal body weight percent change (%),"Day 12, Group 5 (CIA + Compound A 1 mg/kg), 1 mg/kg",10.30% and −3.66% and 8.64% and 6.58% and 2.96% and 5.99% and 1.23%
same,Animal body weight percent change (%),"Day 12, Group 6 (CIA + Compound A 3 mg/kg), 3 mg/kg",−5.95% and 2.92% and 2.86% and 0.00% and −5.39% and 3.68% and 9.55%
same,Average animal body weight,"Day 13, 1 mg/kg",169
same,Average animal body weight percent change,"Day 13, 1 mg/kg",3.78%
same,Average animal body weight,"Day 13, 3 mg/kg",167
same,Average animal body weight percent change,"Day 13, 3 mg/kg",0.88%
same,Average animal body weight,"Day 13, 10 mg/kg",163
same,Average animal body weight percent change,"Day 13, 10 mg/kg",0.66%
same,Animal body weight percent change (%),"Day 13, Group 5 (CIA + Compound A 1 mg/kg), 1 mg/kg",9.09% and −3.66% and 10.49% and 5.26% and 2.96% and 2.99% and 1.23%
same,Animal body weight percent change (%),"Day 13, Group 6 (CIA + Compound A 3 mg/kg), 3 mg/kg",−3.57% and 2.34% and −5.14% and 3.59% and −5.99% and 3.07% and 8.92%
same,Average animal body weight,"Day 14, 1 mg/kg",170
same,Average animal body weight percent change,"Day 14, 1 mg/kg",3.90%
same,Average animal body weight,"Day 14, 3 mg/kg",167
same,Average animal body weight percent change,"Day 14, 3 mg/kg",0.99%
same,Average animal body weight,"Day 14, 10 mg/kg",162
same,Average animal body weight percent change,"Day 14, 10 mg/kg",0.03%
same,Animal body weight percent change (%),"Day 14, Group 5 (CIA + Compound A 1 mg/kg), 1 mg/kg",7.88% and −3.05% and 10.49% and 1.97% and 3.55% and 1.80% and 3.07%
same,Animal body weight percent change (%),"Day 14, Group 6 (CIA + Compound A 3 mg/kg), 3 mg/kg",−2.98% and 3.51% and −2.86% and 4.79% and −6.59% and 2.45% and 8.28%
same,Average animal body weight,"Day 15, 1 mg/kg",168
same,Average animal body weight percent change,"Day 15, 1 mg/kg",3.24%
same,Average animal body weight,"Day 15, 3 mg/kg",166
same,Average animal body weight percent change,"Day 15, 3 mg/kg",0.37%
same,Average animal body weight,"Day 15, 10 mg/kg",162
same,Average animal body weight percent change,"Day 15, 10 mg/kg",0.13%
same,Average animal body weight,"Day 16, 1 mg/kg",167
same,Average animal body weight percent change,"Day 16, 1 mg/kg",2.62%
same,Average animal body weight,"Day 16, 3 mg/kg",165
same,Average animal body weight percent change,"Day 16, 3 mg/kg",−0.37%
same,Average animal body weight,"Day 16, 10 mg/kg",161
same,Average animal body weight percent change,"Day 16, 10 mg/kg",−0.57%
same,Average animal body weight,"Day 17, 1 mg/kg",167
same,Average animal body weight percent change,"Day 17, 1 mg/kg",2.48%
same,Average animal body weight,"Day 17, 3 mg/kg",163
same,Average animal body weight percent change,"Day 17, 3 mg/kg",−1.43%
same,Average animal body weight,"Day 17, 10 mg/kg",161
same,Average animal body weight percent change,"Day 17, 10 mg/kg",−0.47%
same,Average animal body weight,"Day 18, 1 mg/kg",167
same,Average animal body weight percent change,"Day 18, 1 mg/kg",2.38%
same,Average animal body weight,"Day 18, 3 mg/kg",164
same,Average animal body weight percent change,"Day 18, 3 mg/kg",−1.11%
same,Average animal body weight,"Day 18, 10 mg/kg",162
same,Average animal body weight percent change,"Day 18, 10 mg/kg",−0.29%
same,Average animal body weight,"Day 19, 1 mg/kg",166
same,Average animal body weight percent change,"Day 19, 1 mg/kg",1.46%
same,Average animal body weight,"Day 19, 3 mg/kg",163
same,Average animal body weight percent change,"Day 19, 3 mg/kg",−1.74%
same,Average animal body weight,"Day 19, 10 mg/kg",161
same,Average animal body weight percent change,"Day 19, 10 mg/kg",−0.70%
same,Average animal body weight,"Day 20, 1 mg/kg",166
same,Average animal body weight percent change,"Day 20, 1 mg/kg",1.92%
same,Average animal body weight,"Day 20, 3 mg/kg",162
same,Average animal body weight percent change,"Day 20, 3 mg/kg",−2.24%
same,Average animal body weight,"Day 20, 10 mg/kg",161
same,Average animal body weight percent change,"Day 20, 10 mg/kg",−0.54%
same,Average animal body weight,"Day 21, 1 mg/kg",165
same,Average animal body weight percent change,"Day 21, 1 mg/kg",0.93%
same,Average animal body weight,"Day 21, 3 mg/kg",162
same,Average animal body weight percent change,"Day 21, 3 mg/kg",−1.78%
same,Average animal body weight,"Day 21, 10 mg/kg",161
same,Average animal body weight percent change,"Day 21, 10 mg/kg",−0.75%
